PubChem BioAssay (NCI)
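All cell lines were grown in 96-well plates and treated with compound for 48 hours. TGI denotes the concentration required for complete inhibition of growth.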

How the values were obtained:
Test in all cases: inhibition of tumour cell growth, NCI panel, 48 h
786-0 renal = system: 786-0 renal
A498 renal = system: A498 renal
A549 NSCLC = system: A549 NSCLC
CAKI-1 renal = system: CAKI-1 renal
CCRF-CEM leukemia = system: CCRF-CEM leukemia
COLO 205 colon = system: COLO 205 colon
DLD-1 colon = system: DLD-1 colon
DMS 114 small cell lung = system: DMS 114 small cell lung
DMS 273 small cell lung = system: DMS 273 small cell lung
EKVX NSCLC = system: EKVX NSCLC
HCC-2998 colon = system: HCC-2998 colon
HCT-116 colon = system: HCT-116 colon
HCT-15 colon = system: HCT-15 colon
HL-60(TB) leukemia = system: HL-60(TB) leukemia
HOP-62 NSCLC = system: HOP-62 NSCLC
HOP-92 NSCLC = system: HOP-92 NSCLC
IGROV1 ovarian = system: IGROV1 ovarian
K-562 leukemia = system: K-562 leukemia
KM12 colon = system: KM12 colon
KM20L2 colon = system: KM20L2 colon
M14 melanoma = system: M14 melanoma
M19-MEL melanoma = system: M19-MEL melanoma
MOLT-4 leukemia = system: MOLT-4 leukemia
NCI-H23 lung = system: NCI-H23 lung
NCI-H460 lung = system: NCI-H460 lung
NCI-H522 lung = system: NCI-H522 lung
OVCAR-3 ovarian = system: OVCAR-3 ovarian
OVCAR-4 ovarian = system: OVCAR-4 ovarian
OVCAR-8 ovarian = system: OVCAR-8 ovarian
RPMI-8226 leukemia = system: RPMI-8226 leukemia
RXF 393 renal = system: RXF 393 renal
RXF-631 renal = system: RXF-631 renal
SF-268 CNS = system: SF-268 CNS
SF-295 CNS = system: SF-295 CNS
SF-539 CNS = system: SF-539 CNS
SK-MEL-2 melanoma = system: SK-MEL-2 melanoma
SK-MEL-28 melanoma = system: SK-MEL-28 melanoma
SK-MEL-5 melanoma = system: SK-MEL-5 melanoma
SK-OV-3 ovarian = system: SK-OV-3 ovarian
SN12C renal = system: SN12C renal
SNB-19 CNS = system: SNB-19 CNS
SNB-75 CNS = system: SNB-75 CNS
SNB-78 CNS = system: SNB-78 CNS
SR leukemia = system: SR leukemia
TK-10 renal = system: TK-10 renal
U251 CNS = system: U251 CNS
UACC-257 melanoma = system: UACC-257 melanoma
UACC-62 melanoma = system: UACC-62 melanoma
UO-31 renal = system: UO-31 renal
XF 498 CNS = system: XF 498 CNS
ACHN renal = system: ACHN renal
HT29 colon = system: HT29 colon
LOX IMVI melanoma = system: LOX IMVI melanoma
LXFL 529 NSCLC = system: LXFL 529 NSCLC
NCI-H226 lung = system: NCI-H226 lung
OVCAR-5 ovarian = system: OVCAR-5 ovarian
SW-620 colon = system: SW-620 colon
BT-549 breast = system: BT-549 breast
DU-145 prostate = system: DU-145 prostate
HS 578T breast = system: HS 578T breast
MALME-3M melanoma = system: MALME-3M melanoma
MCF7 breast = system: MCF7 breast
MDA-MB-231 breast = system: MDA-MB-231 breast
MDA-MB-435 = system: MDA-MB-435
MDA-N = system: MDA-N
NCI/ADR-RES ovarian = system: NCI/ADR-RES ovarian
PC-3 prostate = system: PC-3 prostate
T-47D breast = system: T-47D breast
HOP-18 NSCLC = system: HOP-18 NSCLC

Measured: TGI

COC(=O)/C(C#N)=C1\CCC(C(=O)OC)N1C (configuration not stated)
> 100 µM: 786-0 renal | A498 renal | A549 NSCLC | CAKI-1 renal | CCRF-CEM leukemia | COLO 205 colon | DLD-1 colon | DMS 114 small cell lung | DMS 273 small cell lung | EKVX NSCLC | HCC-2998 colon | HCT-116 colon | HCT-15 colon | HL-60(TB) leukemia | HOP-62 NSCLC | HOP-92 NSCLC | IGROV1 ovarian | K-562 leukemia | KM12 colon | KM20L2 colon | M14 melanoma | M19-MEL melanoma | MOLT-4 leukemia | NCI-H23 lung | NCI-H460 lung | NCI-H522 lung | OVCAR-3 ovarian | OVCAR-4 ovarian | OVCAR-8 ovarian | RPMI-8226 leukemia | RXF 393 renal | RXF-631 renal | SF-268 CNS | SF-295 CNS | SF-539 CNS | SK-MEL-2 melanoma | SK-MEL-28 melanoma | SK-MEL-5 melanoma | SK-OV-3 ovarian | SN12C renal | SNB-19 CNS | SNB-75 CNS | SNB-78 CNS | SR leukemia | TK-10 renal | U251 CNS | UACC-257 melanoma | UACC-62 melanoma | UO-31 renal | XF 498 CNS

CCOC(=O)/C(=C/c1cccc(OC)c1)N(CC)CC
> 100 µM: 786-0 renal | A498 renal | A549 NSCLC | ACHN renal | CAKI-1 renal | CCRF-CEM leukemia | COLO 205 colon | DMS 114 small cell lung | DMS 273 small cell lung | EKVX NSCLC | HCT-116 colon | HCT-15 colon | HL-60(TB) leukemia | HOP-62 NSCLC | HOP-92 NSCLC | HT29 colon | IGROV1 ovarian | K-562 leukemia | KM12 colon | KM20L2 colon | LOX IMVI melanoma | LXFL 529 NSCLC | M14 melanoma | M19-MEL melanoma | MOLT-4 leukemia | NCI-H226 lung | NCI-H23 lung | NCI-H522 lung | OVCAR-3 ovarian | OVCAR-4 ovarian | OVCAR-5 ovarian | OVCAR-8 ovarian | RPMI-8226 leukemia | SF-268 CNS | SF-295 CNS | SF-539 CNS | SK-MEL-2 melanoma | SK-MEL-28 melanoma | SK-MEL-5 melanoma | SK-OV-3 ovarian | SNB-19 CNS | SNB-78 CNS | SR leukemia | SW-620 colon | TK-10 renal | U251 CNS | UACC-257 melanoma | UACC-62 melanoma | UO-31 renal | XF 498 CNS

CCCn1c(CN(Cc2nc3ccccc3n2CCC)Cc2nc3ccccc3n2CCC)nc2ccccc21
> 89.9 µM: OVCAR-5 ovarian
> 59.9 µM: NCI-H522 lung
40.4 µM: EKVX NSCLC
40.8 µM: MOLT-4 leukemia
28.6 µM: T-47D breast
> 29 µM: CAKI-1 renal
7.86 µM: MDA-MB-231 breast
> 88.5 µM: DU-145 prostate
> 42.5 µM: UACC-257 melanoma
4.46 µM: HL-60(TB) leukemia
> 30.4 µM: OVCAR-3 ovarian
13.6 µM: HCT-116 colon
35.4 µM: SK-MEL-2 melanoma
> 58.4 µM: BT-549 breast
23.3 µM: MALME-3M melanoma
> 49.6 µM: NCI-H23 lung
18.3 µM: UACC-62 melanoma
> 91 µM: HOP-62 NSCLC
18.1 µM: SK-MEL-5 melanoma
> 41.1 µM: HT29 colon
13.3 µM: HOP-92 NSCLC
> 64.4 µM: A549 NSCLC
6.81 µM: SN12C renal
> 64.1 µM: A498 renal
> 43.4 µM: HCT-15 colon
25.1 µM: MDA-N
38.1 µM: SK-MEL-28 melanoma
16.7 µM: IGROV1 ovarian
15.3 µM: MDA-MB-435
> 95.2 µM: HS 578T breast
75.1 µM: SNB-75 CNS
21.8 µM: KM12 colon
11.8 µM: SR leukemia
> 32.3 µM: 786-0 renal
30.7 µM: SF-295 CNS
18.9 µM: LOX IMVI melanoma | PC-3 prostate
18.5 µM: NCI-H460 lung
21.7 µM: CCRF-CEM leukemia
> 100 µM: ACHN renal | NCI/ADR-RES ovarian | OVCAR-8 ovarian | SK-OV-3 ovarian | SNB-19 CNS | SW-620 colon | TK-10 renal | U251 CNS
30 µM: HCC-2998 colon
> 29.2 µM: MCF7 breast
8.96 µM: RXF 393 renal
13 µM: COLO 205 colon
26.1 µM: OVCAR-4 ovarian
42 µM: M14 melanoma
27.3 µM: NCI-H226 lung
27.9 µM: SF-268 CNS
5.36 µM: RPMI-8226 leukemia
34.3 µM: UO-31 renal
32.1 µM: K-562 leukemia
> 50.9 µM: SF-539 CNS

CC(=O)O[C@]12CCCCCC1C1(O)C(O)CCC[C@H]12 (some centres not stated)
> 100 µM: 786-0 renal | A549 NSCLC | ACHN renal | CCRF-CEM leukemia | COLO 205 colon | DMS 114 small cell lung | DMS 273 small cell lung | EKVX NSCLC | HCT-116 colon | HCT-15 colon | HL-60(TB) leukemia | HOP-18 NSCLC | HOP-62 NSCLC | HT29 colon | K-562 leukemia | KM12 colon | KM20L2 colon | LOX IMVI melanoma | LXFL 529 NSCLC | M14 melanoma | M19-MEL melanoma | MALME-3M melanoma | MOLT-4 leukemia | NCI-H226 lung | NCI-H23 lung | NCI-H460 lung | OVCAR-4 ovarian | OVCAR-8 ovarian | RPMI-8226 leukemia | RXF 393 renal | SF-268 CNS | SF-295 CNS | SK-MEL-2 melanoma | SK-MEL-28 melanoma | SK-MEL-5 melanoma | SK-OV-3 ovarian | SN12C renal | SNB-19 CNS | SNB-75 CNS | SNB-78 CNS | SR leukemia | SW-620 colon | TK-10 renal | U251 CNS | UACC-257 melanoma | UACC-62 melanoma | UO-31 renal | XF 498 CNS
